Measurements published in publication PMC3608651, “A Broad Profile of Co-Dominant Epitopes Shapes the Peripheral Mycobacterium tuberculosis Specific CD8+ T-Cell Immune Response in South African Patients with Active Tuberculosis” (PLoS ONE, 2013).
Like-named read-outs stand apart in the source and are kept apart here.

Experiments:
Type in all cases: binding
HLA-B*07:02 = HLA-B*07:02 (Homo sapiens, UniProt P01889); settings: percent relative the binding of positive control peptide […]; duplicated experiments; positive binder >40%
HLA-A*02:01 = HLA-A*02:01 (Homo sapiens, UniProt P04439, D140Y/D185E/D98H/E176V/E277Q/G131W/G231S/I119V/I121R/I166T/I218V/L300P/L318F/N151K/N90K/P208A/P217A/Q86G/Q94H/R138H/R169H/T345S)
HLA-A*68:01 = HLA-A*68:01 (Homo sapiens, UniProt P04439, A269V/D185E/E176V/E277Q/E87N/F33Y/G231S/I121M/I166T/I218V/L180W/L300P/L318F/N151K/P208A/P217A/Q86R/R169H/T345S); settings: percent relative the binding of positive control peptide […]; duplicated experiments; positive binder >40%
HLA-A*30:02 = HLA-A*30:02 (Homo sapiens, UniProt P04439, D101N/D140H/D185E/E176R/F33S/G80R/H175R/K168Q/Q94H/R138E/R41S/V100E); settings: percent relative the binding of positive control peptide […]; duplicated experiments; positive binder >40%
HLA-A*24:02 = HLA-A*24:02 (Homo sapiens, UniProt P04439, D101N/D140Y/D185E/E176V/E190D/F33S/G103R/G107R/I119L/I121M/I306V/K335N/L105A/L180Q/L300P/N151K/N90K/Q86E/Q94H/R106L/R138H/R89G/T104I/T345S/V100E/W191G/Y123F)
HLA-C*07:01 = HLA-C*07:01 (Homo sapiens, UniProt P10321, K90N/S123Y); settings: percent relative the binding of positive control peptide […]; duplicated experiments; positive binder >40%
HLA-A*30:01 = HLA-A*30:01 (Homo sapiens, UniProt P04439, D140H/D185E/E176W/F33S/G80R/H175R/K168Q/R138E/R41S); settings: percent relative the binding of positive control peptide […]; duplicated experiments; positive binder >40%
HLA-B*58:01 = HLA-B*58:01 (Homo sapiens, UniProt P01889, A329T/C349S/D201E/D98Y/E176V/E187L/E204Q/E69T/G107R/I218V/I90N/K202T/L105A/L119I/N104I/N87E/Q89R/Q94S/R106L/R155S/R180L/R86G/S101N/S121R/S35A/S48A/T118I/V127L/V306I/V36M/Y140S/Y91M); settings: percent relative the binding of positive control peptide […]; duplicated experiments; positive binder >40%
[1] = percent relative the binding of positive control peptide […], plate-bound monomer 0.5 µg/ml, duplicated experiments, positive binder >40%
[2] = percent relative the binding of positive control peptide […], duplicated experiments, positive binder >40%

Substance | Bind B*07:02 (HLA-B*07:02) | Bind A*02:01 (HLA-A*02:01; [1]) | Bind A*68:01 (HLA-A*68:01) | Bind A*30:02 (HLA-A*30:02) | Bind A*24:02 (HLA-A*24:02; [2]) | Bind C*07:01 (HLA-C*07:01) | Bind A*30:01 (HLA-A*30:01) | Bind B*58:01 (HLA-B*58:01) | Bind A*02:01 (HLA-A*02:01) | Bind A*24:02 (HLA-A*24:02)
DGLRAQDDY | 1% | 0% | 4% | 58% | 0% | 0% | 2% | 0% | – | –
FIYAGSLSA | 70% | 79% | 38% | 21% | 11% | 35% | 0% | 2% | – | –
SSNLKFQDA | 0% | 32% | 14% | 64% | 12% | 10% | 0% | 9% | – | –
GMGPSLIGL | 5% | 84% | 0% | 46% | 53% | 35% | 16% | 9% | – | –
DAYNAAGGH | 12% | 4% | 64% | 18% | 14% | 16% | 8% | 29% | – | –
THSWEYWGA | 2% | 21% | 57% | 67% | 0% | 6% | 0% | 0% | – | –
QSGLSIVMP | 0% | 30% | 0% | 0% | 0% | 43% | 34% | 0% | – | –
SGLSIVMPV | 0% | 95% | 0% | 38% | 0% | 0% | 0% | 0% | – | –
FYSDW YSPA | 0% | 61% | 0% | 0% | 10% | 0% | 13% | 0% | – | –
SLIGLAMGD | 3% | – | 0% | 47% | 0% | 0% | 0% | 0% | 57 | –
AVKPTGSAA | 82% | 10% | 0% | 7% | – | 0% | 0% | 0% | – | 0
DINTPAFEW | 9% | 0% | 3% | 0% | 56% | 10% | 7% | 58% | – | –
LKFQDAYNA | 0% | 17% | 0% | 91% | 0% | 53% | 0% | 9% | – | –
GPSLIGLAM | 85% | 11% | 6% | 0% | 0% | 0% | 0% | 18% | – | –
AQLNAMKGD | 0% | 10% | 0% | 56% | 29% | 3% | 0% | 0% | – | –
IPKLVANNT | 41% | 0% | 0% | 0% | 0% | 0% | 5% | 16% | – | –
LIGLAMGDA | 0% | 59% | 0% | 5% | 0% | 0% | 0% | 0% | – | –
SQGMGPSLI | 2% | 50% | 0% | 0% | 55% | 22% | 11% | 11% | – | –
YYQSGLSIV | 0% | 98% | 5% | 37% | – | 25% | 29% | 0% | – | 130
W YYQ SG LSI | 6% | 37% | 0% | 0% | 143% | 13% | 18% | 0% | – | –
